How the values were obtained:
Assay in all cases: biochemical
Set-up in all cases: KINOMEscan competition binding, DNA-tagged kinase against immobilised ligand, qPCR read-out
Details in all cases: read-out: Percent Control
AAK1 = AAK1 (Homo sapiens, UniProt Q2M2I8)
BRAF = BRAF (Homo sapiens, UniProt P15056)
BRSK2 = BRSK2 (Homo sapiens, UniProt Q8IWQ3)
CAMK1 = CAMK1 (Homo sapiens, UniProt Q14012)
CAMKK2 = CAMKK2 (Homo sapiens, UniProt Q96RR4)
CDC42BPB = CDC42BPB (Homo sapiens, UniProt Q9Y5S2)
CDK3 = CDK3 (Homo sapiens, UniProt Q00526)
Chain of CDK3 (Q00526 whole entry): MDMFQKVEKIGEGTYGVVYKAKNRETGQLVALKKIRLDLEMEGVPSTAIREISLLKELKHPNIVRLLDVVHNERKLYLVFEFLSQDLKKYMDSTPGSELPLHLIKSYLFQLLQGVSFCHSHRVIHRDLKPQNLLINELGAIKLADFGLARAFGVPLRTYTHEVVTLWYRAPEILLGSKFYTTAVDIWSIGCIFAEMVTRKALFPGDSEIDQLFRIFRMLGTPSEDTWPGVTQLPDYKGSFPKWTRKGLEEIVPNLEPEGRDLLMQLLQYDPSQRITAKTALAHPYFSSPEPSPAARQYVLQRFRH

DCLK3 = DCLK3 (Homo sapiens, UniProt Q9C098)
Chain of DCLK3 (Q9C098 whole entry): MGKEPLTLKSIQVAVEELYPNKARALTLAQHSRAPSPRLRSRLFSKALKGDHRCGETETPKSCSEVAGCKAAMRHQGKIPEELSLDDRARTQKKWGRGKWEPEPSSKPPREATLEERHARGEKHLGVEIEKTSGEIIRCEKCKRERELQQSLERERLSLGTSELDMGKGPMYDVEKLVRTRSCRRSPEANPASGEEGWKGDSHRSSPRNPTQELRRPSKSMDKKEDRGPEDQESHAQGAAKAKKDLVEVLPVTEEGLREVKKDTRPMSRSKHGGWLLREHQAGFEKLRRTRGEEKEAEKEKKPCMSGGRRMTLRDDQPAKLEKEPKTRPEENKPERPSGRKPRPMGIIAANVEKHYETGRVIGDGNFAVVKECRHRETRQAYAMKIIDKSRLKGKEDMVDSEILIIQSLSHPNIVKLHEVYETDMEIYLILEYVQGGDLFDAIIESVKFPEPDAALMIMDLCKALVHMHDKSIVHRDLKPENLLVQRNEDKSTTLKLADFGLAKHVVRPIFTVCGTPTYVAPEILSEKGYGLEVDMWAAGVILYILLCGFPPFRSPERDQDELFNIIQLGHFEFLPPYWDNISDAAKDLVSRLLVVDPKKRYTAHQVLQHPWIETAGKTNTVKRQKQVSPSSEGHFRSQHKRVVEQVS

DDR1 = DDR1 (Homo sapiens, UniProt Q08345)
DSTYK = DSTYK (Homo sapiens, UniProt Q6XUX3)
Chain of DSTYK (Q6XUX3 whole entry): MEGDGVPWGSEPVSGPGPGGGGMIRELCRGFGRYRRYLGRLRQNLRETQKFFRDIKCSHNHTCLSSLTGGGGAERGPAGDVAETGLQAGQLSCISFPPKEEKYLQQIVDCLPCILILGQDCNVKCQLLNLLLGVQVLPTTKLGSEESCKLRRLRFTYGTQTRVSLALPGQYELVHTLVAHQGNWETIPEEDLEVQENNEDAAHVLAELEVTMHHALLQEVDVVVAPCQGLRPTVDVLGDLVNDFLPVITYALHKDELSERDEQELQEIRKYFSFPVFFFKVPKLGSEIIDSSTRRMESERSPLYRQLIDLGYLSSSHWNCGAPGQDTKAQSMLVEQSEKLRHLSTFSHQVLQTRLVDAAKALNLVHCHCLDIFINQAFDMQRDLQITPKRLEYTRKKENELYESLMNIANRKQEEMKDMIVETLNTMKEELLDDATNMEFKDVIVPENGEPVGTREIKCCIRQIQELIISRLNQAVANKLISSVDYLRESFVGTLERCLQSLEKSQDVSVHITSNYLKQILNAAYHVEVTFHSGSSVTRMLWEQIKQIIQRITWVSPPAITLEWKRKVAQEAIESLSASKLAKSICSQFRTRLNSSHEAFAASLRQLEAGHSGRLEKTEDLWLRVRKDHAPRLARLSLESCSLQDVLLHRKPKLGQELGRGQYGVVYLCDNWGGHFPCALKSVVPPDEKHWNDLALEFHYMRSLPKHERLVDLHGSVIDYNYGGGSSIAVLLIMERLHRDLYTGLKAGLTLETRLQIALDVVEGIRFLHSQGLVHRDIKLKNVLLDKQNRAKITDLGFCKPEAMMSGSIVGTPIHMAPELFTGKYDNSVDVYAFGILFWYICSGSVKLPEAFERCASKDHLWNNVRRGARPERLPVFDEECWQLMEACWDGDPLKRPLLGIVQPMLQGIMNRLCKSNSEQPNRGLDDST

EPHB2 = EPHB2 (Homo sapiens, UniProt P29323)
ERBB3 = ERBB3 (Homo sapiens, UniProt P21860)
GSG2 = molecular target: T1, GSG2 (Homo sapiens, UniProt Q8TF76)
T1 construct: gene HASPIN

HIPK4 = HIPK4 (Homo sapiens, UniProt Q8NE63)
MYLK = MYLK (Homo sapiens, UniProt Q15746)
PRKX = PRKX (Homo sapiens, UniProt P51817)
RPS6KB1 = RPS6KB1 (Homo sapiens, UniProt P23443)
Chain of RPS6KB1 (P23443 whole entry): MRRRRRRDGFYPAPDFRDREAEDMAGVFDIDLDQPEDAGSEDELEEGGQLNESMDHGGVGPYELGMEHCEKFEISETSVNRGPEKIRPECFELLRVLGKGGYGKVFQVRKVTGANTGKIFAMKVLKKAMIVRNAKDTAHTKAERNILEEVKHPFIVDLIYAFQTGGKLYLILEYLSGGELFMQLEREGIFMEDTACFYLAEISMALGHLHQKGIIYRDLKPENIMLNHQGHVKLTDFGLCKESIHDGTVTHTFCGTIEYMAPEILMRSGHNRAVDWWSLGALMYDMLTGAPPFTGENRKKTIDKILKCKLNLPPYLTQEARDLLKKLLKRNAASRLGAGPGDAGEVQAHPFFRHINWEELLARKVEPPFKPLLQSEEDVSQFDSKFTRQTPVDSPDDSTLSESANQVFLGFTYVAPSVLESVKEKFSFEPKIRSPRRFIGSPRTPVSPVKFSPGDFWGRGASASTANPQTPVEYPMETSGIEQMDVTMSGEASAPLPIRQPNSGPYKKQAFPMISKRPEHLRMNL

[1] = molecular target: T2, RSK2(Kin.Dom.1-N-terminal) (Homo sapiens, UniProt P51812)
T2 construct: gene RPS6KA3; Kin.Dom.1 N-terminal
T2 sequence (P51812 whole entry): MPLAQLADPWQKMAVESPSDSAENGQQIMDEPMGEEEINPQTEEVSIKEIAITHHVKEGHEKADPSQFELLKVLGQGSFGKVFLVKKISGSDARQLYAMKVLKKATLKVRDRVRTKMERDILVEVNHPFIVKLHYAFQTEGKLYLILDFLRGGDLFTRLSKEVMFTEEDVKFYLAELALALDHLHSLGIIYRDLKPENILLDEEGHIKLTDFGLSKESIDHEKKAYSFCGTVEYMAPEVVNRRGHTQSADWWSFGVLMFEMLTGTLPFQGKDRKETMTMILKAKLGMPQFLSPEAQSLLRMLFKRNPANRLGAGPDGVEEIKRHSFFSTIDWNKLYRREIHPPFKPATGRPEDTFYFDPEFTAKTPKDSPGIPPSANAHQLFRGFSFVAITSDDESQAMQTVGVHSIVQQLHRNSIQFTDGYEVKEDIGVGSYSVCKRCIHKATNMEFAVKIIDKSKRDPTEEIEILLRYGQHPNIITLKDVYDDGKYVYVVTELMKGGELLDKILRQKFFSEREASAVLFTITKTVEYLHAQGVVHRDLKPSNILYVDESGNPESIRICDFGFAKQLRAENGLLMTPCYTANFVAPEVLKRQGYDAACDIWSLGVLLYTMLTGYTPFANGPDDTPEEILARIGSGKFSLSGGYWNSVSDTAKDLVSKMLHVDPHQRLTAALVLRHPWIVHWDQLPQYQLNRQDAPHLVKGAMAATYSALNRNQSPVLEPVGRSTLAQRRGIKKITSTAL

SRPK1 = SRPK1 (Homo sapiens, UniProt Q96SB4)
Chain of SRPK1 (Q96SB4 whole entry): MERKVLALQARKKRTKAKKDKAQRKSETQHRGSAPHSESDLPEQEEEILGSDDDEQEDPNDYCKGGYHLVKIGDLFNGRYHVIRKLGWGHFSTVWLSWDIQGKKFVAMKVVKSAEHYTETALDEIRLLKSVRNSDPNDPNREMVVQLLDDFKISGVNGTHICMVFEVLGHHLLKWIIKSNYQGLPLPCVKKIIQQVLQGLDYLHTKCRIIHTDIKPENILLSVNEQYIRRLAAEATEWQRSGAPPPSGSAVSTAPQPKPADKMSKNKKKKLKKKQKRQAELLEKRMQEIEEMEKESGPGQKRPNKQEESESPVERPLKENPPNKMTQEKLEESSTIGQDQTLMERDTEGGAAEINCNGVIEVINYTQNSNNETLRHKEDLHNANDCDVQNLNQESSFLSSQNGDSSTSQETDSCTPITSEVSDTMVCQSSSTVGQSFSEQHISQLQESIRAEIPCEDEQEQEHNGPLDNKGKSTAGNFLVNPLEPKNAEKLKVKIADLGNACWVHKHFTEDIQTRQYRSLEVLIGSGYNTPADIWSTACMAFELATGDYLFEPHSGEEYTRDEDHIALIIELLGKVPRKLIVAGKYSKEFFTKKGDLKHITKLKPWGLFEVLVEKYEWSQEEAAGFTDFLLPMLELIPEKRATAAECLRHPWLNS

[2] = molecular target: T3, TYK2(JH1domain-catalytic) (Homo sapiens, UniProt P29597)
T3 construct: JH1 domain catalytic

Chain of BRSK2 (Q8IWQ3 whole entry): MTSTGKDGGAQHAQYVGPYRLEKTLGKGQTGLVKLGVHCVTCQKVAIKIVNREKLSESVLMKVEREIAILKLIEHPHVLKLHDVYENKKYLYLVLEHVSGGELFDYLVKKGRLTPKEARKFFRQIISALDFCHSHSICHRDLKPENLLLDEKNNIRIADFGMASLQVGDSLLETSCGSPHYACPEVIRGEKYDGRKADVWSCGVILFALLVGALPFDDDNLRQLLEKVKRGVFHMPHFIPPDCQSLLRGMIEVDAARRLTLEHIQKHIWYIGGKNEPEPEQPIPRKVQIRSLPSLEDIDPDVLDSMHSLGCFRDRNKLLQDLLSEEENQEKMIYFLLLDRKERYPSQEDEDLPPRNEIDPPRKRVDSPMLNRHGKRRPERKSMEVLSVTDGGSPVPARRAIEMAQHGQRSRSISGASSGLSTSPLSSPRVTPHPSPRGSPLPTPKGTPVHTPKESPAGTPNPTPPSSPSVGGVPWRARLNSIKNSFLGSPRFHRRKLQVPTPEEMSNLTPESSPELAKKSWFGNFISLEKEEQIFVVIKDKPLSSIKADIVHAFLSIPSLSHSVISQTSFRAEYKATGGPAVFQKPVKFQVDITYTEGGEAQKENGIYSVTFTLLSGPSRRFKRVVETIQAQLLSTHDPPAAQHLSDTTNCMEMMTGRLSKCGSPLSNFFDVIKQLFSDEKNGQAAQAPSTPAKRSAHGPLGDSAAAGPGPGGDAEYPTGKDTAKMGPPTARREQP
Chain of CAMK1 (Q14012 whole entry): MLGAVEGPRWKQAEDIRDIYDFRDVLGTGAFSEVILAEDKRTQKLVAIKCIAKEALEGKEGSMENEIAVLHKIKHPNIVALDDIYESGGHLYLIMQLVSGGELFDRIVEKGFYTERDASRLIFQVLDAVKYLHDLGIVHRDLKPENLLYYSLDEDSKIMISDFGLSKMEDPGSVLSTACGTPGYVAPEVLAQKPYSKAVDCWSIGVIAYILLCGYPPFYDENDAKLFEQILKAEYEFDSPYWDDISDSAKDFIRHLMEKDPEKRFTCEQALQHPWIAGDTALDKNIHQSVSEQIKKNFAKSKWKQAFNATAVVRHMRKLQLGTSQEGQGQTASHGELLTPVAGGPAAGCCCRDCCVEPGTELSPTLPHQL

Question: Which results are given for `Oc1ccc(C2=Cc3ccc(O)cc3OC2)cc1` [compound 1, idronoxil]?
Answer: remaining binding at 10 µM (AAK1): 61%; remaining binding at 10 µM (BRAF): 76%; remaining binding at 10 µM (BRSK2): 84%; remaining binding at 10 µM (CAMK1): 96%; remaining binding at 10 µM (CAMKK2): 68%; remaining binding at 10 µM (CDC42BPB): 88%; remaining binding at 10 µM (CDK3): 89%; remaining binding at 10 µM (DCLK3): 92%; remaining binding at 10 µM (DDR1): 87%; remaining binding at 10 µM (DSTYK): 74%; remaining binding at 10 µM (EPHB2): 86%; remaining binding at 10 µM (ERBB3): 73%; remaining binding at 10 µM (GSG2): 5.3%; remaining binding at 10 µM (HIPK4): 75%; remaining binding at 10 µM (MYLK): 52%; remaining binding at 10 µM (PRKX): 88%; remaining binding at 10 µM (RPS6KB1): 84%; remaining binding at 10 µM [1]: 57%; remaining binding at 10 µM (SRPK1): 100%; remaining binding at 10 µM [2]: 74%

Reference: PMC10507085, “Pharmacological inhibition of TBK1/IKKε blunts immunopathology in a murine model of SARS-CoV-2 infection” (Nature Communications, 2023)
